The nature of series [1]: Solubility study of 2,5-dichloroaniline in different solvents. The class given is physicochemical. The method, then: Three different commercially available sources of 2,5-dichloroaniline (Sigma, Acros, and AlfaAesar) were evaluated for solubility in several different solvents under the specific conditions reported in Table 5-A. The 2,5-dichloroaniline obtained from Sigma was evaluated with and without milling.
In contrast, it was insoluble in concentrated hydrochloric acid, 75% sulfuric acid (weight/weight sulfuric acid/water), and formic acid at all temperatures tested. Although 2,5-dichloroaniline was soluble in concentrated sulfuric acid at 80° C., solubility at the lower temperatures tested still was limited. Milling the 2,5-dichloroaniline did appear to improve solubility in concentrated sulfuric acid.
When sulfuric acid was added to the milled or unmilled 2,5-dichloroaniline, the 2,5-dichloroaniline clumped up and formed a “crust” on itself. It is hypothesized that this crust is a 2,5-dichloroaniline sulfate salt that forms and creates a salt capsule enclosing the 2,5-dichloroaniline thereby further reducing 2,5-dichloroaniline solubility. With vigorous stirring by stir bar or paddle-equipped stir rod, the mixture containing the “crusted” 2,5-dichloroaniline typically can be converted to a slurry of the 2,5-dichloroaniline sulfate salt.

The conditions of series [2]: acetic acid/sulfuric acid reaction mixture stored at room temperature for two weeks.
The nature of series [3]: 2,5-Dichlorophenol stability at 120° C. with or without sodium nitrite and sulfamic acid. The format is physicochemical. The conditions noted are these: 120° C. in the various solvents, without sodium nitrite. The method, then: In this study, 2,5-dichlorophenol was stirred at 120° C. in the presence or absence of sodium nitrite and/or sulfamic acid. The 2,5-dichlorophenol itself was stable and either dissolved or melted in the various solvents at 120° C. Upon addition of sodium nitrite to the solution and heating at 120° C. for 30 minutes, all of the solutions had some byproduct formation. The experiments were repeated with sulfamic acid added at 1.1 times the sodium nitrite equivalents with heating to 120° C. for 30 minutes as before. Byproduct formation was reduced, and only the solutions containing sulfuric acid had byproducts.

Solubility, Degradation on storage and Stability data for 3 compounds are collected here from US9878978B2, “Processes for the diazotization of 2,5-dichloroanilines” (priority 2013, dated 2018).

Molecules are shown by their SMILES.

As for `Nc1cc(Cl)ccc1Cl` [2,5-dichloroaniline], the Solubility entry is listed as “insoluble” in series [1] (75% sulfuric acid (weight/weight sulfuric acid/water), all temperatures tested); “Partial” in series [1] (Acros, not milled, Conc. H2SO4, molarity 1.12, 10° C.); “Soluble” in series [1] (Acros, not milled, Conc. H2SO4, molarity 1.12, 25° C.); “Soluble” in series [1] (Acros, not milled, Conc. H2SO4, molarity 1.12, 80° C.); “Partial” in series [1] (Acros, not milled, Conc. H2SO4, molarity 2.24, 10° C.); “Partial” in series [1] (Acros, not milled, Conc. H2SO4, molarity 2.24, 25° C.). Also, the Solubility result in series [1] (Acros, not milled, Conc. H2SO4, molarity 2.24, 80° C.) is “Soluble”; in series [1] (Acros, not milled, Glacial Acetic Acid, molarity 1.12, 10° C.) it was “Soluble”; in series [1] (Acros, not milled, Glacial Acetic Acid, molarity 1.12, 25° C.), “Soluble”; in series [1] (Acros, not milled, Glacial Acetic Acid, molarity 1.12, 80° C.), “Soluble”; in series [1] (Acros, not milled, Glacial Acetic Acid, molarity 2.24, 10° C.), “Soluble”; in series [1] (Acros, not milled, Glacial Acetic Acid, molarity 2.24, 25° C.), “Soluble”. Moreover, the Solubility entry in series [1] (Acros, not milled, Glacial Acetic Acid, molarity 2.24, 80° C.) is on record as “Soluble”; in series [1] (AlfaAesar, not milled, Conc. H2SO4, molarity 1.12, 10° C.), “Partial”; in series [1] (AlfaAesar, not milled, Conc. H2SO4, molarity 1.12, 25° C.) it was “Partial”; in series [1] (AlfaAesar, not milled, Conc. H2SO4, molarity 1.12, 80° C.), “Soluble”; in series [1] (AlfaAesar, not milled, Glacial Acetic Acid, molarity 2.24, 10° C.), “Soluble”; in series [1] (AlfaAesar, not milled, Glacial Acetic Acid, molarity 2.24, 25° C.) it was “Soluble”. Moreover, the Solubility entry in series [1] (AlfaAesar, not milled, Glacial Acetic Acid, molarity 2.24, 80° C.) is given as “Soluble”; in series [1] (Sigma, milled, Conc. H2SO4, molarity 0.58, 10° C.), “Soluble”; in series [1] (Sigma, milled, Conc. H2SO4, molarity 0.58, 25° C.) it was “Soluble”; in series [1] (Sigma, milled, Conc. H2SO4, molarity 1.16, 10° C.), “Soluble”; in series [1] (Sigma, milled, Conc. H2SO4, molarity 1.16, 25° C.), “Soluble”; in series [1] (Sigma, milled, Conc. H2SO4, molarity 2.13, 10° C.), “Soluble”. The Solubility result in series [1] (Sigma, milled, Conc. H2SO4, molarity 2.13, 25° C.) is “Soluble”; in series [1] (Sigma, milled, Glacial Acetic Acid, molarity 1.16, 10° C.), “Soluble”; in series [1] (Sigma, milled, Glacial Acetic Acid, molarity 1.16, 25° C.) it was “Soluble”; in series [1] (Sigma, milled, Glacial Acetic Acid, molarity 2.24, 10° C.) it was “Soluble”; in series [1] (Sigma, milled, Glacial Acetic Acid, molarity 2.24, 25° C.) it was “Soluble”; in series [1] (Sigma, not milled, 75% H2SO4, molarity 2.24, 10° C.), “Insoluble”. Besides, the Solubility entry is listed as “Insoluble” in series [1] (Sigma, not milled, 75% H2SO4, molarity 2.24, 25° C.); “Insoluble” in series [1] (Sigma, not milled, 75% H2SO4, molarity 2.24, 80° C.); “Insoluble” in series [1] (Sigma, not milled, Conc. H2SO4, molarity 2.24, 10° C.); “Insoluble” in series [1] (Sigma, not milled, Conc. H2SO4, molarity 2.24, 25° C.); “Soluble” in series [1] (Sigma, not milled, Conc. H2SO4, molarity 2.24, 80° C.); “Insoluble” in series [1] (Sigma, not milled, Conc. HCl, molarity 2.24, 10° C.). In addition, the Solubility entry in series [1] (Sigma, not milled, Conc. HCl, molarity 2.24, 25° C.) is listed as “Insoluble”; in series [1] (Sigma, not milled, Conc. HCl, molarity 2.24, 80° C.), “Insoluble”; in series [1] (Sigma, not milled, Formic Acid (88%), molarity 2.24, 10° C.), “Insoluble”; in series [1] (Sigma, not milled, Formic Acid (88%), molarity 2.24, 25° C.) it was “Insoluble”; in series [1] (Sigma, not milled, Formic Acid (88%), molarity 2.24, 80° C.), “Insoluble”; in series [1] (Sigma, not milled, Glacial Acetic Acid, molarity 2.24, 25° C.), “Soluble”. Moreover, the Solubility result was “Soluble” in series [1] (Sigma, not milled, Glacial Acetic Acid, molarity 2.24, 80° C.); “Soluble” in series [1] (Sigma, not milled, Trifluoracetic Acid, molarity 2.24, 10° C.); “Soluble” in series [1] (Sigma, not milled, Trifluoracetic Acid, molarity 2.24, 25° C.); “Soluble” in series [1] (Sigma, not milled, Trifluoracetic Acid, molarity 2.24, 80° C.); “readily soluble” in series [1] (acetic acid, all temperatures); “insoluble” in series [1] (concentrated hydrochloric acid, all temperatures tested). For the same compound, the Solubility entry in series [1] (concentrated sulfuric acid, 80° C.) is given as “soluble”; in series [1] (concentrated sulfuric acid, lower temperatures tested), “limited”; in series [1] (formic acid, all temperatures tested) it was “insoluble”; in series [1] (trifluoroacetic acid, all temperatures) it was “readily soluble”.
In the case of `N#[N+]c1cc(Cl)ccc1Cl` [2,5-Dichlorobenzene diazonium, 2,5-dichlorobenzenediazonium], the Degradation on storage entry in series [2] is “no degradation”.
Regarding `Oc1cc(Cl)ccc1Cl` [2,5-dichlorophenol], the Stability result in series [3] is listed as “stable”.
